Entries after “also recorded” stand apart in the source; their conditions may differ.
Key:
[1] = tested on: azacitidine-resistant leukemia cell lines; details: cited from earlier work
[2] = tested on: SKM-1 leukemia cell line; experiment: Cell proliferation assay for azacitidine after long-term culture (development of resistance); type: cell-based; details: for sensitivity to azacitidine (dose-response curve) / development of resistance: Aza group: SKM-1 treated 4 months with azacitidine only, 50 nmol/L to 1.6 mol/L
Protocol: SKM-1 (National Institute of Biomedical Innovation, Health and Nutrition) was used as leukemia cell line. Cells were cultured in RPMI 1640 medium (Life Technologies) containing 1% penicillin/streptomycin and 10% fetal bovine serum (FBS) in an environment of 37° C., 5% CO2 and saturated water vapor.
The respective cultures were subjected to long-term culture. The concentration of azacitidine was 50 nmol/L at the start and was doubled at 2-4 week intervals. When cultured for 2 weeks after the azacitidine concentration had reached […], the treated groups were subjected to an assay for cell proliferation for azacitidine.
In the cell proliferation assay, cells were first suspended in a medium so that the number of cells was 111,111 cells/mL, and 90 μL (10,000 cells) each of the resultant was seeded in a 96-well plate (Corning Incorporated) per well. Next, 10 μL of a PBS solution of azacitidine (0, 3, 10, 30, 100 or 300 μmon) was added to the plate, and the cells were cultured in an environment of 37° C., 5% CO2 and saturated water vapor for 72 hours.
The relative number of the cancer cells after the above incubation was measured in terms of emission intensity using Cell Titer Glo (Promega Corporation) reagent by a plate reader (Envision, PerkinElmer Inc.). With the number of cells at a concentration of azacitidine of 0 μmol/L as 100% and the emission intensity of the sample to which no cells were added as 0%, the relative value of emission intensity was calculated at each azacitidine concentration. The results of each group were plotted with the azacitidine concentration (mon) on the horizontal axis and the emission intensity (relative value) on the vertical axis.
Aza: SKM-1 cells treated for 4 months with gradual increase in the concentration of azacitidine (50 nmol/L to […]) Aza+A1: SKM-1 cells which were treated in the same manner as in the Aza group and to which Compound A was added at 1 μmon throughout the period of treatment. Aza+A10: SKM-1 cells which were treated in the same manner as in the Aza group and to which Compound A was added at 1 μmon throughout the period of treatment

[3] = tested on: intracellular CTP (cytidine triphosphate) in leukemia cells (SKM-1); experiment: Amount of intracellular CTP in leukemia cells after 4-month exposure; type: cell-based
Protocol: Intracellular CTP (cytidine triphosphate) competes with Aza-CTP (an active metabolite of Aza) and an increased amount of CTP may reduce sensitivity to Aza. […] Then, studies were conducted on the assumption that exposure to Compound A or a salt thereof or a hydrate thereof and Aza for a long time is effective for the recovery or retainment of sensitivity to Aza with the expectation that Compound A or a salt thereof or a hydrate thereof has an inhibitory effect on CTP increase.
The result is that a long-term (4 months) exposure of leukemia cells to a combination of Aza and Compound A.¾ hydrate caused a change in Aza sensitivity. […] Thus, treating an untreated MDS patient with a combination of Aza and Compound A or a salt thereof or a hydrate thereof is considered to be effective for maintaining their sensitivity to Aza.

[4] = tested on: MDS patients; experiment: Administration to MDS patients (Examples 2 to 5); type: in vivo; details: for effect on the development of resistance to pyrimidine antimetabolite: 28-day cycle
Protocol: (§1) Compound A is administered to MDS patients (over 18 years of age) at a dose per one time of 400 mg/m^2 twice a day for 14 days. Administration of azacitidine is started on the day when the administration of Compound A is started. Azacitidine is administered subcutaneously or intravenously at a dose of 75 mg/m^2 for 7 days. The treatment cycle consists of 28 days. After the administration for 7 days, the administration is discontinued for 21 days.
as §1, with “21” for “14”, “days.” for “days. Administration of azacitidine is started on the day when the administration of Compound A is started.”
as §1, with “time of 300 mg/m^2 twice” for “time of 400 mg/m^2 twice”, “21 days. […] The day of the start of administration of Compound A may be earlier than the day of the start of administration of azacitidine. Furthermore, Compound A may be administered twice a day for 21 days as in Example 3.” for “21 days.”
as §1, with “time of 200 mg/m^2 twice” for “time of 400 mg/m^2 twice”, “21 days. […] The day of the start of administration of Compound A may be earlier than the day of the start of administration of azacitidine. Furthermore, Compound A may be administered twice a day for 21 days as in Example 3.” for “21 days.”
For the MDS patients in Examples 2 to 5, the therapeutic effect is evaluated for the following items in comparison with the outcome of an azacitidine single agent+BSC (Best Supportive Care: Support therapy, transfusion, administration of antibiotics, analgesics, antipyretics, antiemetics, etc. as required) (International Phase III Test “Aza-001”). The period for which the development of resistance to pyrimidine antimetabolite is prevented or suppressed in the above patients is preferably 3 months or more, preferably 4 months or more, preferably 5 months or more, preferably 6 months or more, and preferably 1 year or more.

[5] = tested on: MDS patients; details: AZA-001 test, cited from earlier work

NC(=O)c1nc[nH]c1O [Compound A, 5-Hydroxy-1H-imidazole-4-carboxamide]
cell growth inhibitory activity / cross resistance [1]: cell growth inhibitory activity without cross resistance | effect on the development of resistance to Aza ([2]; 4-month exposure of naive SKM-1 to Aza and Compound A (1 mon or 10 μmon)): prophylactic or suppressive effect; also recorded: almost complete elimination of the development of resistance to Aza | sensitivity to azacitidine (dose-response curve) ([2]; Aza+A1 group: treated as Aza group plus Compound A at 1 μmon throughout): almost the same as that of the control group | sensitivity to azacitidine (dose-response curve) ([2]; Aza+A10 group: treated as Aza group plus Compound A at 10 mon throughout): almost the same as that of the control group | amount of intracellular CTP ([3]; Aza and Compound A combined from the start of the treatment): kept at a level similar to that in untreated cells | effect on the development of resistance to pyrimidine antimetabolite ([4]; Example 2: Compound A 400 mg/m^2 twice a day for 14 days with azacitidine 75 mg/m^2 for 7 days): prophylactic or suppressive effect | effect on the development of resistance to pyrimidine antimetabolite ([4]; Example 3: Compound A 400 mg/m^2 twice a day for 21 days with azacitidine 75 mg/m^2 for 7 days): prophylactic or suppressive effect | side effects in patients ([4]; Example 4: Compound A 300 mg/m^2 twice a day for 14 days with azacitidine): side effects in patients can be reduced | effect on the development of resistance to pyrimidine antimetabolite ([4]; Example 4: Compound A 300 mg/m^2 twice a day for 14 days with azacitidine 75 mg/m^2 for 7 days): prophylactic or suppressive effect | side effects in patients ([4]; Example 5: Compound A 200 mg/m^2 twice a day for 14 days with azacitidine): side effects in patients can be reduced | effect on the development of resistance to pyrimidine antimetabolite ([4]; Example 5: Compound A 200 mg/m^2 twice a day for 14 days with azacitidine 75 mg/m^2 for 7 days): prophylactic or suppressive effect

Nc1ncn([C@@H]2O[C@H](CO)[C@@H](O)[C@H]2O)c(=O)n1 [azacitidine, 4-amino-1-β-D-ribofuranosyl-1,3,5-triazin-2(1H)-one]
2-year survival rate [5]: 50.8% | Hematologic response rate according to IWG criteria (2000 edition) [5]: 6.7% | Hematological improvement according to IWG criteria (2000 edition) [5]: 49.2% | Median time of AML transformation [5]: 20.7 months | Median time of AML transformation or death [5]: 13.0 months | Survival (median) [5]: 24.5 months | patients who achieved platelet transfusion-independence from dependence ([5]; no platelet transfusions for consecutive 56 days or more): 42.1% | patients who achieved red blood cell transfusion-independence from dependence ([5]; no red blood cell transfusions for consecutive 56 days or more): 45.0% | sensitivity to azacitidine (dose-response curve) / development of resistance [2]: the dose-response curve shifted to the right | sensitivity to azacitidine (dose-response curve) / development of resistance ([2]; listed as Aza): resulting in the development of resistance | emission intensity (relative value) / number of viable cells ([2]; SKM-1, all groups, azacitidine 72 hours, Cell Titer Glo): decreased azacitidine concentration-dependently | amount of intracellular CTP ([3]; 4-month exposure to only Aza): an increase in the amount of intracellular CTP
